Laboratory results taken from the NIST ThermoML archive (doi:10.1016/j.jct.2011.10.013).

What was measured:
[1] = xn = mol fraction of the nth substance listed; conditions: 298.15 K; for surface tension liquid-gas: Dataphysics DCAT21 digital tensiometer; for mass density: 101 kPa, Liquid, Vibrating tube method
[2] = for surface tension liquid-gas: Dataphysics DCAT21 digital tensiometer; for mass density: Liquid, Vibrating tube method

CCCCCCCC[n+]1ccccc1.O=[N+]([O-])[O-] [1-octylpyridinium nitrate] + CO
[1]
Conditions | mass density [kg/m3] | surface tension liquid-gas [mN/m]
x1 = 0.1026 | 910.2 | 27.4
x1 = 0.2063 | 974.3 | 30.11
x1 = 0.3072 | 1011.3 | 30.78
x1 = 0.4225 | 1038.4 | 32
x1 = 0.5067 | 1052.6 | –
x1 = 0.6067 | 1065 | –
x1 = 0.8534 | 1084.4 | –
x1 = 0.936 | 1087.5 | –
x1 = 1 | 1089.5 | –

CCCCCCCC[n+]1ccccc1.O=[N+]([O-])[O-] [1-octylpyridinium nitrate] + CCO
[1]
Conditions | mass density [kg/m3] | surface tension liquid-gas [mN/m]
x1 = 0.2 | 939.3 | 26.44
x1 = 0.3035 | 981.4 | 27.83
x1 = 0.4063 | 1011.5 | 28.74
x1 = 0.5087 | 1034.2 | 29.75
x1 = 0.5903 | 1048.5 | –
x1 = 0.7456 | 1069.4 | –
x1 = 0.791 | 1073.9 | –
x1 = 0.876 | 1081.5 | –
x1 = 1 | 1089.5 | –

CCO [ethanol] + CCCCCCCC[n+]1ccccc1.O=[N+]([O-])[O-]
[1], x2 = 0
Conditions | mass density [kg/m3] | surface tension liquid-gas [mN/m]
– | 784.8 | 21.55

CCO [ethanol]
Conditions | surface tension liquid-gas [mN/m]
[2], 298.15 K | 21.55

Conditions | mass density [kg/m3]
[2], 298.15 K, 101 kPa | 784.8

CCCCCCCC[n+]1ccccc1.O=[N+]([O-])[O-] [1-octylpyridinium nitrate]
[2]
Conditions | surface tension liquid-gas [mN/m]
293.15 K | 36.12
298.15 K | 35.76
303.15 K | 35.5
308.15 K | 35.18
313.15 K | 34.76
318.15 K | 34.48
323.15 K | 34.12
328.15 K | 33.78

[2], 101.33 kPa
Conditions | mass density [kg/m3]
293.15 K | 1093.5
298.15 K | 1089.5
303.15 K | 1084.2
308.15 K | 1078.6
313.15 K | 1073.4
318.15 K | 1068.6
323.15 K | 1063.8
328.15 K | 1059.7

CCCCO [butan-1-ol] + CCCCCCCC[n+]1ccccc1.O=[N+]([O-])[O-]
[1], x2 = 0
Conditions | mass density [kg/m3] | surface tension liquid-gas [mN/m]
– | 805.6 | 23.67

CO [methanol]
Conditions | surface tension liquid-gas [mN/m]
[2], 298.15 K | 22.09

Conditions | mass density [kg/m3]
[2], 298.15 K, 101 kPa | 785.3

CCCCCCCC[n+]1ccccc1.O=[N+]([O-])[O-] [1-octylpyridinium nitrate] + CCCCO
[1]
Conditions | mass density [kg/m3] | surface tension liquid-gas [mN/m]
x1 = 0.1245 | 875.3 | 25.17
x1 = 0.2008 | 910 | 25.84
x1 = 0.3038 | 948.6 | 26.35
x1 = 0.4019 | 978.1 | 26.92
x1 = 0.5012 | 1002 | 27.53
x1 = 0.6025 | 1023 | –
x1 = 0.701 | 1041.7 | –
x1 = 0.8005 | 1059 | –
x1 = 0.899 | 1074.9 | –
x1 = 1 | 1089.5 | –

CO [methanol] + CCCCCCCC[n+]1ccccc1.O=[N+]([O-])[O-]
[1], x2 = 0
Conditions | mass density [kg/m3] | surface tension liquid-gas [mN/m]
– | 785.3 | 22.09

CCCCO [butan-1-ol]
Conditions | surface tension liquid-gas [mN/m]
[2], 298.15 K | 23.67

Conditions | mass density [kg/m3]
[2], 298.15 K, 101 kPa | 805.6
